How the values were obtained:
[1] = tested on: GRK; assay: GRK phosphorylation of synthetic peptide substrate with 32P-ATP (isolated system); assay type: biochemical; conditions: GSNO 500 μM, 50 μM, 5 μm; counts per minute; FIG. 3
Procedure: An isolated system was provided consisting of medium, GRK, standard synthetic peptide substrate and radiolabeled ^32P-adenosine triphosphate, i.e., ^32P-ATP, as a source of phosphate. Runs were carried out on the system without additives, and with 500 μM glutathione (GSH) present and with GSNO (500 μM) present or with GSNO (50 μM) present or with GSNO (5 μm) present. The amount of bound ^32P was measured in counts per minute (CPM).

[2] = Example VII: patient with rheumatoid arthritis and pulmonary infiltrates; assay type: in vivo; conditions: intravenous ethyl nitrite 2 nmol per kg per minute
Text: A person with rheumatoid arthritis and pulmonary infiltrates complains of shortness of breath and knee pain.

[3] = Example V: heroine addict, dose tapering, withdrawal symptoms; assay type: in vivo, patient; conditions: ethyl nitrite intravenously 2 nmol per kg per minute
Text: A heroine addict enters a clinic where their dose is tapered gradually. In order to avoid symptoms of withdrawal, ethyl nitrite is started intravenously at 2 nmol per kg per minute and symptoms of withdrawal, including sweats and shaking, are ameliorated.

[4] = Example I: patient with class 4 congestive heart failure; assay type: in vivo
Procedure: A person with class 4 congestive heart failure enters the hospital with shortness of breath and bradyacardia. […] The patient is subsequently switched to IV dobutamine at 10 μg per kg per minute titrated to cardiac output. Over the following three days the drug is increased to 30 μg per kg per minute to maintain cardiac output. […] The patient undergoes bypass surgery and does well even though they have been viewed as at high risk.

[5] = Ratio of heart weight to body weight after 1 week continuous infusion; assay type: in vivo; conditions: mice, infused continuously 1 week; GSNO 10/ng/kg/day; isoproterenol 30 mg/kg/day; combination 10 mg/kg/day GSNO plus 30 mg/kg/day isoproterenol; FIG. 1
Procedure: Mice were treated with 10/ng/kg/day of GSNO, or with PBS (control) or with isoproterenol (at a dosage of 30 mg/kg/day) or with 10 mg/kg/day of GSNO plus 30 mg/kg/day isoproterenol, infused continuously for 1 week. The animals were sacrificed and the hearts were weighed and a ratio of heart weight to body weight was determined for each case. The results are set forth in FIG. 1 where hw:bw, i.e., the legend on the vertical axis, is the ratio of heart weight to total body weight and “ISO” means isoproterenol. […] The increase in size of heart (hypertrophy) is an advantage especially in the case of a patient on a left ventricular heart assist device awaiting heart transplant and in the case of a patient who has had heart surgery and cannot be disconnected from a heart pump without loss of heart function. The asterisks in FIG. 1 mean […] compared to control.

[6] = Example VI: cystic fibrosis patient with shortness of breath; assay type: in vivo; conditions: inhaled GSNO, 3 cc of a 10 mM solution, pH 7, 4×/day
Procedure: A person with cystic fibrosis enters the hospital complaining of shortness of breath. […] They are started on inhaled GSNO (3 cc of a 10 mM solution, pH 7, 4×/day).

[7] = Example III: patient who cannot be removed from bypass after coronary artery bypass grafting; assay type: in vivo; conditions: intravenous GSNO 2 nmol per kg per minute, after two hours
Text: A person with an ejection fraction of 17% undergoes coronary artery bypass grafting. The surgeons are unable to remove the patient from bypass.

[8] = tested on: β-adrenergic receptor; assay: Saturation binding with radiolabeled 125I-cyanopindolol in purified cardiac membrane of treated mice; assay type: in vivo
Procedure: Mice were treated with 10 ng/kg/day of GSNO or PBS infused continuously for 1 week through an azlet miniosmotic pump placed subcutaneously. Another set of mice was treated for 7 days with isoproterenol (30 mg/kg/day), and the fourth and final group received for 7 days, isoproterenol (30 mg/kg/day) plus GSNO (10 ng/kg/day). The mice were sacrificed and heart tissue was removed. Saturation binding with radiolabeled 1^125-cyanopindolol was carried out in purified cardiac membrane according to the procedure of Iaccarino et al, Circulation 98, 17A3-17A9 (1998).

[9] = Example II: patient on left ventricular assist device awaiting cardiac transplantation; assay type: in vivo; conditions: IV GSNO 4 nmol per kg per minute
Text: A person awaiting cardiac transplantation is placed a left ventricular assist device, but continues to suffer from severe shortness of breath.

[10] = Example IV: metastatic prostate cancer patient with bone pain unresponsive to opiates; assay type: in vivo; conditions: intravenous GSNO 10 nmol per kg per minute in conjunction with morphine
Text: A person with metastatic prostate cancer is suffering from severe bone pain unresponsive to opiates.

With `N[C@@H](CSN=O)C(=O)O` [S-nitroso-cysteine] as the compound, how does the “amount of bound 32P (incorporation of 32P into substrate)” value [1] read?
The value was “same result of GRK inhibition and interference with substrate phosphorylation”.

For `CCON=O` [ethyl nitrite], which knee pain [2] is on record?
Its knee pain is “decrease in knee pain”.

And the respiratory status [2]?
The respiratory status was “improvement in respiratory status”.

What about the “symptoms of withdrawal, including sweats and shaking” value [3] of the same compound?
Its value is “ameliorated”.

For `N[C@@H](CCC(=O)N[C@@H](CSN=O)C(=O)NCC(=O)O)C(=O)O` [GSNO, S-nitrosoglutathione], which cardiac output ([4]; IV GSNO 2 nmol per kg per minute, on dobutamine 30 μg per kg per minute, over the following 24 hours) is on record?
Its cardiac output is “improved”.

And the “ratio of heart weight to body weight (hw:bw), size of heart muscle” value [5]?
The value was “increases the size of the heart muscle”.

And the “FEV1 (acute)” value [6]?
Its value is “does not change acutely”.

And the blood pressure [6]?
Its blood pressure is “remains stable”.

And the “symptoms of shortness of breath” value ([6]; with corresponding improvement in FEV1)?
Its value is “resolve over the following 48 hours”.

What about the “amount of bound 32P (incorporation of 32P into substrate)” value [1] of the same compound?
Its value is “concentration dependent reduction in incorporation of ^32P”.

What about the removal from bypass [7] of the same compound?
Its removal from bypass is “successfully removed from bypass”.

What about the “amount of β-adrenergic receptor” value ([8]; GSNO 10 ng/kg/day infused 1 week, no isoproterenol) of the same compound?
The value was 40 fmol per mg/protein.

And the cardiac output [9]?
Its cardiac output is “increase in cardiac output”.

And the shortness of breath [9]?
Its shortness of breath is “decrease in shortness of breath”.

What about the bone pain [10] of the same compound?
The bone pain was “relieves their pain”.

What does the source list for `CC(C)NCC(O)c1ccc(O)c(O)c1` (stereo not drawn) [isoproterenol, reference compound]?
symptoms (shortness of breath and bradyacardia) ([4]; 10 μg per minute intravenous isoproterenol): resolution of symptoms; ratio of heart weight to body weight (hw:bw), size of heart muscle [5]: increased the size of the heart muscle; amount of β-adrenergic receptor ([8]; isoproterenol 30 mg/kg/day for 7 days, no GSNO): 20 fmol per milligram protein
